Reference: patent publication US20240167075A1, “METHODS FOR ASSAYING ENZYME ACTIVITY” (Regeneron Pharmaceuticals, Inc., priority 2022, published 2024)
Entries after “also recorded” stand apart in the source; their conditions may differ.

Experiments:
Assay type in all cases: biochemical
β4GALT1 [1] = experiment: commercial Phosphate Glycosyltransferase Activity kit (R&D Systems), malachite green phosphate detection; conditions: UDP-Gal glycosyl donor, coupling phosphatase; FIG. 4
Excerpt: The commercial Phosphate Glycosyltransferase Activity kit was purchased from R&D Systems. The principle of the assay along with the materials provided were utilized according to manufacturer's conditions. In brief, a diphosphonucleotide sugar (such as UDP-Gal) is used as a glycosyl donor and mixed with a glycosyl acceptor, a phosphatase, and a glycosyltransferase. Glycosyltransferase activity exposes a phosphate of the glycosyl donor to phosphatase activity, releasing free phosphate. The amount of phosphate present should be directly proportional to the amount of formed glycosylated product. The kit also uses a specific phosphatase to remove an inorganic phosphate quantitatively from UDP. The released inorganic phosphate is subsequently quantitated by sensitive colorimetric malachite green phosphate detecting reagents. The amount of inorganic phosphate released by the coupling phosphatase should be equal to the nucleotide sugar consumed or glycoconjugate product generated. Therefore, the rate of inorganic phosphate products should reflect the kinetics of a glycosyltransferase reaction (specific activity of the enzyme). The steps as performed are outlined in FIG. 3.
To estimate the amount of UDP produced in the enzymatic reaction, a phosphate standard curve was established according to manufacturer's conditions. […]

β4GALT1 [2] = experiment: HILIC-FLR-MS based assay of β4GALT1 activity with 2-AB-G0F labeling substrate; conditions: 1.1 pmol B4GALT1, 1.7 nmol UDP-Gal, 10 pmol 2-AB-G0F, room temperature, 0 to 60 minutes; FIG. 8, 12, 13
Method: Specifically, the enzymatic activities were measured using uridine diphosphate galactose (UDP-Gal) as a donor substrate and a labeled glycan (2-AB-G0F) as the labeling substrate. The experiment was carried out over eight different time points.
The enzymatic reaction was initiated by adding 1.1 pmol of B4GALT1 into a mixture of 1.7 nmol UDP-Gal (the glycosyl donor) and 10 pmol of 2-AB-G0F (the glycosyl acceptor), and the mixture was incubated at room temperature for 2, 5, 10, 15, 25, 40, and 60 minutes. The sample representing the initial time point (0 min) was prepared by omitting the enzyme. This HILIC-FLR-MS based method was used to quantitate both the decrease of UDP-Gal and the increase in formation of the products (G1F/G2F).
All samples were analyzed using an Acquity UPLC I-Class coupled with Vion IMS Q-Tof (Waters, Milford, MA, USA). A Waters Acquity UPLC Glycoprotein BEH Amide chromatographic column (300 Å, 150 mm×2.1 mm, 1.7 μm) was used to separate the analytes with a column temperature of 60° C. and a flow rate of 0.5 mL/minute. Mobile phase A was 50 mM ammonium acetate at a pH 4.4, and mobile phase B was acetonitrile. A 5 μL aliquot of each mixture was injected onto the column for HILIC-MS analysis. The sample run time was 12 minutes.
The samples were monitored using a UV detector at a wavelength of 280 nm and fluorescence with excitation at a wavelength of 330 nm and emission at a wavelength of 420 nm. The Waters Vion IMS Q-Tof mass spectrometer was operated in positive mode and the mass spectra were acquired with a m/z range between 600 and 2000. UDP-Gal was quantitated and the data were collected and processed using UNIFI software (Waters).

β4GALT1 [3] = experiment: HILIC-UV/MS based assay of β4GALT1 activity (method of Montasser et al.)
Excerpt: Montasser et al. attempted to assay enzyme activity using a method involving quantification of the β4GALT1 substrate UDP-Gal, by measuring its peak area using hydrophilic interaction chromatography-ultraviolet detection-mass spectroscopy. The method as outlined in Montasser et al. was followed, using HILIC-UV-MS to quantitate the decrease of UDP-Gal as a measure of β4GALT1 activity. In particular, the decrease of UDP-Gal could be measured using UV detection and the corresponding increase of GlcNAc-Gal could be measured using MS.
The glycosyl donor was 1.7 nmol UDP-Gal; the glycosyltransferase was 1.1 pmol β4GALT1; and the glycosyl acceptor was 500 nmol GlcNAc. All samples were analyzed using an Acquity UPLC I-Class coupled with Vion IMS Q-Tof (Waters, Milford, MA, USA). A Waters Acquity UPLC Glycoprotein BEH Amide chromatographic column (300 Å, 150 mm×2.1 mm, 1.7 μm) was used to separate the analytes with a column temperature of 45° C. and a flow rate of 0.2 mL/minute. Mobile phase A was 50 mM ammonium acetate at a pH 7.5, and mobile phase B was 5% (v/v) 25 mM ammonium acetate at a pH 7.5 in acetonitrile. A 1 μL aliquot of each mixture (wildtype and mutant β4GALT1) was injected for analysis.
The difference in activity between the wildtype and mutant β4GALT1 was tested using paired two-sided Student's t-test.

Molecule	specific activity (enzyme activity) determined using a commercial kit (β4GALT1 [1])	fluorescent signal for 2-AB-G0F (labeling substrate) over time (β4GALT1 [2])	signal for the products 2-AB-G1F and 2-AB-G2F over time (β4GALT1 [2])	decrease in UDP-Gal (UV peak area) (β4GALT1 [3]; 1.7 nmol UDP-Gal, 1.1 pmol β4GALT1, 500 nmol GlcNAc, 2, 5, 10, 15, 25, 40, and 60 minutes, FIG. 5)	increase in the amounts of the product (GlcNAc-Gal) over time, MS (β4GALT1 [3]; 2, 5, 10, 15, 25, 40, and 60 minutes, FIG. 6)	activity suggested by decrease in UDP-Gal (β4GALT1 [3]; wildtype compared to mutant, FIG. 5)
Beta-1,4-galactosyltransferase 1 [wildtype β4GALT1]	less active than β4GALT1 with N352S mutation	reduction in the signal; also recorded: declines substantially over time	increase substantially over time	significantly more	significantly more	higher activity
β4GALT1 with N352S mutation: missense variant (rs551564683, p.Asn352Ser) in β4GALT1 (protein, UniProt P15291 1-398, looked up, variant N352S) MRLREPLLSGSAAMPGASLQRACRLLVAVCALHLGVTLVYYLAGRDLSRLPQLVGVSTPLQGGSNSAAAIGQSSGELRTGGARPPPPLGASSQPRPGGDSSPVVDSGPGPASNLTSVPVPHTTALSLPACPEESPLLVGPMLIEFNMPVDLELVAKQNPNVKMGGRYAPRDCVSPHKVAIIIPFRNRQEHLKYWLYYLHPVLQRQQLDYGIYVINQAGDTIFNRAKLLNVGFQEALKDYDYTCFVFSDVDLIPMNDHNAYRCFSQPRHISVAMDKFGFSLPYVQYFGGVSALSKQQFLTINGFPNNYWGWGGEDDDIFNRLVFRGMSISRPNAVVGRCRMIRHSRDKKNEPSPQRFDRIAHTKETMLSDGLNSLTYQVLDVQRYPLYTQITVDIGTPS		less so	less so			
